Reference: patent US9302999B2, “Substituted triazoles as herbicides” (E. I. DU PONT DE NEMOURS AND COMPANY, priority 2012, dated 2016)

How the values were obtained:
Assay type in all cases: in vivo
[1] = system: foxtail, giant (giant foxtail, Setaria faberii); assay: Test A pre-/postemergence: foxtail, giant
Method in brief: (§1)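 Injury was scored visually on a 0 (no effect) to 100 (complete control) scale versus untreated controls roughly ten days after treatment in the greenhouse. Compounds, formulated in surfactant-containing non-phytotoxic solvent, went on as soil-directed preemergence spray or postemergence to one- to two-leaf plants 2–10 cm tall.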

[2] = system: morningglory (Ipomoea spp.); assay: Test A pre-/postemergence: morningglory
Method in brief: as §1

corn (Zea mays) = assay: Test A pre-/postemergence: corn
Method in brief: as §1

[3] = system: sedge, umbrella (small-flower umbrella sedge Cyperus difformis); assay: Test B flooded paddy: sedge, umbrella; settings: Flood; 250 g ai/ha; applied to paddy water at 2-leaf stage; visually evaluated after 13 to 15 days
Method in brief: (§2)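 Each compound is applied to the floodwater of pots holding 2-leaf seedlings, water standing 3 cm over the soil throughout. Plants stay in a greenhouse 13 to 15 days before visual scoring against controls from 0 (no effect) to 100 (complete control).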

[4] = system: ducksalad (Heteranthera limosa); assay: Test B flooded paddy: ducksalad; settings: Flood; 250 g ai/ha; applied to paddy water at 2-leaf stage; visually evaluated after 13 to 15 days
Method in brief: as §2

[5] = system: ryegrass, Italian (Italian ryegrass, Lolium multiflorum); assay: Test C pre-/postemergence: ryegrass, Italian
Method in brief: (§3)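 Visual injury scored 0–100 (100 = complete control) against untreated controls after 13–15 greenhouse days. Surfactant-containing solvent formulations applied either to soil after sowing (loam/sand) or over 1- to 4-leaf plants, 2–18 cm tall.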

[6] = system: johnsongrass (Sorghum halepense); assay: Test C pre-/postemergence: johnsongrass
Method in brief: as §3

kochia (Kochia scoparia) = assay: Test C pre-/postemergence: kochia; settings: Postemergence
Method in brief: as §3

[7] = system: ragweed (common ragweed, Ambrosia elation); assay: Test C pre-/postemergence: ragweed
Method in brief: as §3

soybean (Glycine max) = assay: Test C pre-/postemergence: soybean
Method in brief: as §3

[8] = system: chickweed (common chickweed, Stellaria media); assay: Test C postemergence: chickweed
Method in brief: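 Visual ratings of 0 (no effect) to 100 (complete control) were made against controls 13-15 days after a postemergence spray, with plants kept in a greenhouse. Plants were 2-18 cm tall (1- to 4-leaf stage) in Redi-Earth peat/vermiculite medium at treatment.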

[9] = Postemergence, 125 g ai/ha, 0 to 100 scale, 0 is no effect, 100 is complete control
[10] = Postemergence, 500 g ai/ha, visual rating on 0 to 100 scale (0 no effect, 100 complete control), approximately ten days
[11] = Preemergence, 125 g ai/ha, 0 to 100 scale where 0 is no effect and 100 is complete control
[12] = Preemergence, 500 g ai/ha, 0 to 100 scale (0 no effect, 100 complete control)
[13] = Postemergence, 16 g ai/ha, scale 0 to 100, 0 no effect, 100 complete control
[14] = Postemergence, 31 g ai/ha, scale 0 to 100 (0 no effect, 100 complete control)
[15] = Postemergence, 62 g ai/ha, scale 0 to 100 (0 no effect, 100 complete control)
[16] = Postemergence, 125 g ai/ha, scale 0 to 100, 0 no effect, 100 complete control
[17] = Preemergence, 16 g ai/ha, scale 0 (no effect) to 100 (complete control)
[18] = Preemergence, 31 g ai/ha, scale of 0 to 100, 0 is no effect, 100 is complete control
[19] = Preemergence, 62 g ai/ha, scale of 0 to 100, 0 is no effect, 100 is complete control
[20] = Preemergence, 125 g ai/ha, scale 0 to 100, 0 no effect, 100 complete control
[21] = 16 g ai/ha, scale 0 to 100, 0 no effect, 100 complete control
[22] = 31 g ai/ha, scale 0 to 100 (0 no effect, 100 complete control)
[23] = 62 g ai/ha, scale 0 to 100 (0 no effect, 100 complete control)
[24] = 125 g ai/ha, scale 0 to 100, 0 no effect, 100 complete control

FCc1nn(-c2ccc(F)cc2)nc1Oc1ccnc(C(F)(F)F)c1 [Compound 160]
Plant response rating, Foxtail, Giant [1, 9]: 90
Foxtail, Giant plant response rating [1, 10]: 90
Plant response rating, Foxtail, Giant [1, 11]: 100
Plant response rating, Foxtail, Giant [1, 12]: 100
Plant response rating, Morningglory [2, 9]: 90
Morningglory plant response rating [2, 10]: 90
Plant response rating, Morningglory [2, 11]: 40
Plant response rating, Morningglory [2, 12]: 70
Plant response rating, Corn (corn (Zea mays); [9]): 30
Corn plant response rating (corn (Zea mays); [10]): 60
Plant response rating, Corn (corn (Zea mays); [11]): 20
Plant response rating, Corn (corn (Zea mays); [12]): 40
Plant response rating, Sedge, Umbrella (0 to 100 scale, 0 is no effect, 100 is complete control) [3]: 85
Plant response rating, Ducksalad (0 to 100 scale, 0 is no effect, 100 is complete control) [4]: 90
Plant response rating, Ryegrass, Italian [5, 13]: 10
Plant response rating, Ryegrass, Italian [5, 14]: 30
Plant response rating, Ryegrass, Italian [5, 15]: 30
Plant response rating, Ryegrass, Italian [5, 16]: 45
Plant response rating, Ryegrass, Italian [5, 17]: 5
Plant response rating, Ryegrass, Italian [5, 18]: 15
Plant response rating, Ryegrass, Italian [5, 19]: 80
Plant response rating, Ryegrass, Italian [5, 20]: 90
Plant response rating, Johnsongrass [6, 13]: 10
Plant response rating, Johnsongrass [6, 14]: 15
Plant response rating, Johnsongrass [6, 16]: 30
Plant response rating, Johnsongrass [6, 17]: 85
Plant response rating, Johnsongrass [6, 18]: 100
Plant response rating, Johnsongrass [6, 19]: 100
Plant response rating, Johnsongrass [6, 20]: 100
Plant response rating, Kochia (kochia (Kochia scoparia); [21]): 90
Plant response rating, Kochia (kochia (Kochia scoparia); [22]): 90
Plant response rating, Kochia (kochia (Kochia scoparia); [23]): 95
Plant response rating, Kochia (kochia (Kochia scoparia); [24]): 95
Plant response rating, Ragweed [7, 13]: 10
Plant response rating, Ragweed [7, 14]: 10
Plant response rating, Ragweed [7, 15]: 40
Plant response rating, Ragweed [7, 16]: 40
Plant response rating, Ragweed [7, 17]: 0
Plant response rating, Ragweed [7, 18]: 0
Plant response rating, Ragweed [7, 19]: 5
Plant response rating, Ragweed [7, 20]: 5
Plant response rating, Soybean (soybean (Glycine max); [13]): 15
Plant response rating, Soybean (soybean (Glycine max); [14]): 25
Plant response rating, Soybean (soybean (Glycine max); [15]): 25
Plant response rating, Soybean (soybean (Glycine max); [16]): 30
Plant response rating, Soybean (soybean (Glycine max); [17]): 0
Plant response rating, Soybean (soybean (Glycine max); [18]): 5
Plant response rating, Soybean (soybean (Glycine max); [19]): 20
Plant response rating, Soybean (soybean (Glycine max); [20]): 20
Plant response rating, Chickweed [8, 21]: 70
Plant response rating, Chickweed [8, 22]: 90
Plant response rating, Chickweed [8, 23]: 95
Plant response rating, Chickweed [8, 24]: 98
